The values below come from patent US8962671B2, “Amino-substituted 3-heteroaroylamino-propionic acid derivatives and their use as pharmaceuticals” (Sanofi, priority 2011, dated 2015).

The structures appear in SMILES notation. pIC50: −log10 of the molar value.

The target in the test is T1, Recombinant human cathepsin A (Homo sapiens, UniProt P10619).
T1 construct: Recombinant human cathepsin A (residues 29-480, with a C-terminal 10-His tag); 10-His (C); purchased R&D Systems 1049-SE
T1 sequence (P10619 29-326 limits assumed): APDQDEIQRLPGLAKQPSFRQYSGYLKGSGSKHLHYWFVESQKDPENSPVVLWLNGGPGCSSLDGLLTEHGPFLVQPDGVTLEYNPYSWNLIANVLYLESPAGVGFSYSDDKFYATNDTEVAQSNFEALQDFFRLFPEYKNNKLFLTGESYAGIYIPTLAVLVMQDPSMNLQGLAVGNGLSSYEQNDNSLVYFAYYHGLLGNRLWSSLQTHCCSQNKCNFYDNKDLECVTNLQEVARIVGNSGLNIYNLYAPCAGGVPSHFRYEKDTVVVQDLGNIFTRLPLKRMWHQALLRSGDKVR
T1 sequence (P10619 327-480 limits assumed): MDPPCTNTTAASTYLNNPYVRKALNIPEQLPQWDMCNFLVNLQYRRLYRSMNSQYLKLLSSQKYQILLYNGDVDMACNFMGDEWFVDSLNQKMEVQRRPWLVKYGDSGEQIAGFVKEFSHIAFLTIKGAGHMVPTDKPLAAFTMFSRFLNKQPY
The experiment in a line: Cathepsin A inhibitory activity. It is filed as biochemical. To be noted: activated recombinant human cathepsin A 833 ng/ml, Bodipy FL-labeled bradykinin 2 μM, pH 5.5, 15 min room temperature. The procedure: a) Cathepsin a Inhibitory Activity
Recombinant human cathepsin A (residues 29-480, with a C-terminal 10-His tag; R&D Systems, #1049-SE) was proteolytically activated with recombinant human cathepsin L (R&D Systems, #952-CY). Briefly, cathepsin A was incubated at 10 μg/ml with cathepsin L at 1 μg/ml in activation buffer (25 mM 2-(morpholin-4-yl)-ethanesulfonic acid (MES), pH 6.0, containing 5 mM dithiothreitol (DTT)) for 15 min at 37° C. Cathepsin L activity was then stopped by the addition of the cysteine protease inhibitor E-64 (N-(trans-epoxysuccinyl)-L-leucine-4-guanidinobutylamide; Sigma-Aldrich, #E3132; dissolved in activation buffer/DMSO) to a final concentration of 10 μM.
The activated cathepsin A was diluted in assay buffer (25 mM MES, pH 5.5, containing 5 mM DTT) and mixed with the test compound (dissolved in assay buffer containing (v/v) 3% DMSO) or, in the control experiments, with the vehicle in a multiple assay plate. After incubation for 15 min at room temperature, as substrate then bradykinin carrying an N-Terminal®Bodipy FL (4,4-difluoro-5,7-dimethyl-4-bora-3a,4a-diaza-s-indacene-3-propionyl) label (JPT Peptide Technologies GmbH; dissolved in assay buffer) was added to the mixture. The final concentration of cathepsin A was 833 ng/ml and the final concentration of labeled bradykinin 2 μM. After incubation for 15 min at room temperature the reaction was stopped by the addition of stop buffer (130 mM 2-(4-(2-hydroxy-ethyl)-piperazin-1-yl)-ethanesulfonic acid, pH 7.4, containing (v/v) 0.013%®Triton X-100, 0.13% Coating Reagent 3 (Caliper Life Sciences), 6.5% DMSO and 20 μM ebelactone B (Sigma, #E0886)).
Uncleaved substrate and product were then separated by a microfluidic capillary electrophoresis on a LabChip® 3000 Drug Discovery System (12-Sipper-Chip; Caliper Life Sciences) and quantified by determination of the respective peak areas. Substrate turnover was calculated by dividing product peak area by the sum of substrate and product peak areas, and the enzyme activity and the inhibitory effect of the test compound thus quantified. From the percentage of inhibition of cathepsin A activity observed with the test compound at several concentrations, the inhibitory concentration IC50, i.e. the concentration which effects 50% inhibition of enzyme activity was, calculated.
As for `Cc1ccccc1[C@H](CC(=O)O)NC(=O)c1cc(NC[C@@H](O)C(C)(C)C)n(-c2ccccc2)n1` (single isomer, unassigned) [Example 60], the negative-log IC50 (pIC50) was 7.95. Next, `N#Cc1cccc([C@H](CC(=O)O)NC(=O)c2cc3[nH]c4ccccc4n3n2)c1` [Example 37, (S)-3-[(4H-Benzo[4,5]imidazo[1,2-b]pyrazole-2-carbonyl)-amino]-3-(3-cyano-phenyl)-propionic acid]: 5.45; `O=C(O)C[C@H](NC(=O)c1cc2[nH]c3ccccc3n2n1)c1ccccc1Cl` [Example 49, (S)-3-[(4H-Benzo[4,5]imidazo[1,2-b]pyrazole-2-carbonyl)-amino]-3-(2-chloro-phenyl)-propionic acid]: 6.41; `Cc1ccccc1[C@H](CC(=O)O)NC(=O)c1cc(N)n(-c2ccccc2)n1` [Example 1, (S)-3-[(5-Amino-1-phenyl-1H-pyrazole-3-carbonyl)-amino]-3-o-tolyl-propionic acid]: 7.60. For the compound `Nc1cc(C(=O)NC(CC(=O)O)c2cc(Cl)ccc2Cl)nn1-c1ccccc1F` (centres unmarked) [Example 9, 3-{[5-Amino-1-(2-fluoro-phenyl)-1H-pyrazole-3-carbonyl]-amino}-3-(2,5-dichloro-phenyl)-propionic acid], the pIC50 is 6.70.

For `Nc1cc(C(=O)NC(CC(=O)O)c2ccc(-c3ccc(F)cc3)cc2)nn1-c1ccccc1` (centres unmarked) [Example 2, 3-[(5-Amino-1-phenyl-1H-pyrazole-3-carbonyl)-amino]-3-(4′-fluoro-biphenyl-4-yl)-propionic acid], the pIC50 was 7.27. Next, `Cc1ccccc1[C@H](CC(=O)O)NC(=O)c1cc(NCC(O)C(C)(C)C)n(-c2ccccc2)n1` (stereo partly drawn) [Example 57, (S)-3-{[5-(2-Hydroxy-3,3-dimethyl-butylamino)-1-phenyl-1H-pyrazole-3-carbonyl]-amino}-3-o-tolyl-propionic acid]: 7.92; `O=C(O)CC(NC(=O)c1cc2[nH]c3ccccc3n2n1)c1ccccc1F` (centres unmarked) [Example 24, 3-[(4H-Benzo[4,5]imidazo[1,2-b]pyrazole-2-carbonyl)-amino]-3-(2-fluoro-phenyl)-propionic acid]: 5.76. Regarding `Cc1ccccc1[C@H](CC(=O)O)NC(=O)c1cc(NCC(C)(O)C(C)(C)C)n(-c2ccccc2)n1` (stereo partly drawn) [Example 58, (S)-3-{[5-(2-Hydroxy-2.3,3-trimethyl-butylamino)-1-phenyl-1H-pyrazole-3-carbonyl]-amino}-3-o-tolyl-propionic acid], the pIC50 was 7.41. Under `O=C(O)CC(Cc1ccccc1)NC(=O)c1cc(NC(=O)c2ccccc2)n(-c2ccccc2)n1` (centres unmarked) [Example 75, 3-[(5-Benzoylamino-1-phenyl-1H-pyrazole-3-carbonyl)-amino]-4-phenyl-butyric acid] stands 6.43; under `O=C(O)CC(NC(=O)c1cc2[nH]c3ccccc3n2n1)c1cccc(Oc2ccccc2)c1` (centres unmarked) [Example 26, 3-[(4H-Benzo[4,5]imidazo[1,2-b]pyrazole-2-carbonyl)-amino]-3-(3-phenoxy-phenyl)-propionic acid], 5.58. Turning to `Cc1ccccc1[C@H](CC(=O)O)NC(=O)c1cc(N2CCCCC2=O)n(-c2ccccc2F)n1` [Example 18, (S)-3-{[1-(2-Fluoro-phenyl)-5-(2-oxo-piperidin-1-yl)-1H-pyrazole-3-carbonyl]-amino}-3-o-tolyl-propionic acid], the pIC50 is 7.34.

Consider `O=C(O)CC(NC(=O)c1cc2[nH]c3ccccc3n2n1)c1ccc(F)c(F)c1` (centres unmarked) [Example 20, 3-[(4H-Benzo[4,5]imidazo[1,2-b]pyrazole-2-carbonyl)-amino]-3-(3,4-difluoro-phenyl)-propionic acid], for which the pIC50 was 5.48.

For the compound `N#Cc1ccc(C(CC(=O)O)NC(=O)c2cc3[nH]c4ccccc4n3n2)cc1` (centres unmarked) [Example 21, 3-[(4H-Benzo[4,5]imidazo[1,2-b]pyrazole-2-carbonyl)-amino]-3-(4-cyano-phenyl)-propionic acid], the negative logarithm of the IC50 (pIC50) is 5.62. Regarding `Cc1ccccc1[C@H](CC(=O)O)NC(=O)c1cc(N)n(-c2ccccc2F)n1` [Example 3, (S)-3-{[5-Amino-1-(2-fluoro-phenyl)-1H-pyrazole-3-carbonyl]-amino}-3-o-tolyl-propionic acid], the negative-log IC50 (pIC50) is 7.86.

As to `O=C(O)C[C@H](NC(=O)c1cc2[nH]c3ccccc3n2n1)c1ccccc1F` [Example 40, (S)-3-[(4H-Benzo[4,5]imidazo[1,2-b]pyrazole-2-carbonyl)-amino]-3-(2-fluoro-phenyl)-propionic acid], the negative-log IC50 (pIC50) is 5.93.

On to `Cc1ccc([C@H](CC(=O)O)NC(=O)c2cc(N(C)C(=O)c3ccccc3)n(-c3ccccc3)n2)cc1` [Example 72, (S)-3-{[5-(Benzoyl-methyl-amino)-1-phenyl-1H-pyrazole-3-carbonyl]-amino}-3-p-tolyl-propionic acid], for which the pIC50 is 6.99. On to `O=C(O)C[C@H](NC(=O)c1cc(NC(=O)c2ccccc2)n(-c2ccccc2)n1)c1ccccc1F` [Example 83, (S)-3-[(5-Benzoylamino-1-phenyl-1H-pyrazole-3-carbonyl)-amino]-3-(2-fluoro-phenyl)-propionic acid], for which the pIC50 was 6.83. `O=C(O)CC(NC(=O)c1cc2[nH]c3ccccc3n2n1)c1cc(F)ccc1Cl` (centres unmarked) [Example 32, 3-[(4H-Benzo[4,5]imidazo[1,2-b]pyrazole-2-carbonyl)-amino]-3-(2-chloro-5-fluoro-phenyl)-propionic acid]: the pIC50 was 6.18. Under `Cc1ccccc1[C@H](CC(=O)O)NC(=O)c1cc(NC(=O)C(C)(C)C)n(-c2ccccc2)n1` [Example 52, (S)-3-{[5-(2,2-Dimethyl-propionylamino)-1-phenyl-1H-pyrazole-3-carbonyl]-amino}-3-o-tolyl-propionic acid] stands 7.54; under `Cc1ccccc1[C@H](CC(=O)O)NC(=O)c1cc(N2CCCC2)n(-c2ccccc2)n1` [Example 6, (S)-3-[(1-Phenyl-5-pyrrolidin-1-yl-1H-pyrazole-3-carbonyl)-amino]-3-o-tolyl-propionic acid], 7.81; under `Cc1ccccc1[C@H](CC(=O)O)NC(=O)c1cc(NC[C@H](O)C(C)(C)C)n(-c2ccccc2)n1` (single isomer, unassigned) [Example 59], 7.60. As for `Cc1ccccc1[C@H](CC(=O)O)NC(=O)c1cc(N2CCCCC2=O)n(-c2ccccc2)n1` [Example 17, (S)-3-{[5-(2-Oxo-piperidin-1-yl)-1-phenyl-1H-pyrazole-3-carbonyl]-amino}-3-o-tolyl-propionic acid], the pIC50 is 7.19.

Consider `O=C(O)CC(NC(=O)c1cc(NC(=O)c2ccccc2)n(-c2ccccc2)n1)C1CCCCC1` (centres unmarked) [Example 74, 3-[(5-Benzoylamino-1-phenyl-1H-pyrazole-3-carbonyl)-amino]-3-cyclohexyl-propionic acid], for which the negative logarithm of the IC50 (pIC50) is 7.10. Consider `Cc1ccccc1[C@H](CC(=O)O)NC(=O)c1cc(N(C)CC(O)C(C)(C)C)n(-c2ccccc2)n1` (stereo partly drawn) [Example 65, (S)-3-({5-[(2-Hydroxy-3,3-dimethyl-butyl)-methyl-amino]-1-phenyl-1H-pyrazole-3-carbonyl}-amino)-3-o-tolyl-propionic acid], for which the pIC50 is 7.11. Next, `Cc1ccccc1[C@H](CC(=O)O)NC(=O)c1cc(NC(=O)C(c2ccccc2)c2ccccc2)n(-c2ccccc2)n1` [Example 69, (S)-3-[(5-Diphenylacetylamino-1-phenyl-1H-pyrazole-3-carbonyl)-amino]-3-o-tolyl-propionic acid]: 6.90.

As usually defined, the pIC50 is −log10 of the IC50, conventionally taken in molar units.
